Among the data in ChEMBL document CHEMBL1131770, “Multiple parallel synthesis of N,N-dialkyldipeptidylamines as N-type calcium channel blockers” (Bioorg Med Chem Lett, 1999) are IC50 values, retold here.

Chain of Voltage-dependent N-type calcium channel subunit alpha-1B (Q00975 whole entry): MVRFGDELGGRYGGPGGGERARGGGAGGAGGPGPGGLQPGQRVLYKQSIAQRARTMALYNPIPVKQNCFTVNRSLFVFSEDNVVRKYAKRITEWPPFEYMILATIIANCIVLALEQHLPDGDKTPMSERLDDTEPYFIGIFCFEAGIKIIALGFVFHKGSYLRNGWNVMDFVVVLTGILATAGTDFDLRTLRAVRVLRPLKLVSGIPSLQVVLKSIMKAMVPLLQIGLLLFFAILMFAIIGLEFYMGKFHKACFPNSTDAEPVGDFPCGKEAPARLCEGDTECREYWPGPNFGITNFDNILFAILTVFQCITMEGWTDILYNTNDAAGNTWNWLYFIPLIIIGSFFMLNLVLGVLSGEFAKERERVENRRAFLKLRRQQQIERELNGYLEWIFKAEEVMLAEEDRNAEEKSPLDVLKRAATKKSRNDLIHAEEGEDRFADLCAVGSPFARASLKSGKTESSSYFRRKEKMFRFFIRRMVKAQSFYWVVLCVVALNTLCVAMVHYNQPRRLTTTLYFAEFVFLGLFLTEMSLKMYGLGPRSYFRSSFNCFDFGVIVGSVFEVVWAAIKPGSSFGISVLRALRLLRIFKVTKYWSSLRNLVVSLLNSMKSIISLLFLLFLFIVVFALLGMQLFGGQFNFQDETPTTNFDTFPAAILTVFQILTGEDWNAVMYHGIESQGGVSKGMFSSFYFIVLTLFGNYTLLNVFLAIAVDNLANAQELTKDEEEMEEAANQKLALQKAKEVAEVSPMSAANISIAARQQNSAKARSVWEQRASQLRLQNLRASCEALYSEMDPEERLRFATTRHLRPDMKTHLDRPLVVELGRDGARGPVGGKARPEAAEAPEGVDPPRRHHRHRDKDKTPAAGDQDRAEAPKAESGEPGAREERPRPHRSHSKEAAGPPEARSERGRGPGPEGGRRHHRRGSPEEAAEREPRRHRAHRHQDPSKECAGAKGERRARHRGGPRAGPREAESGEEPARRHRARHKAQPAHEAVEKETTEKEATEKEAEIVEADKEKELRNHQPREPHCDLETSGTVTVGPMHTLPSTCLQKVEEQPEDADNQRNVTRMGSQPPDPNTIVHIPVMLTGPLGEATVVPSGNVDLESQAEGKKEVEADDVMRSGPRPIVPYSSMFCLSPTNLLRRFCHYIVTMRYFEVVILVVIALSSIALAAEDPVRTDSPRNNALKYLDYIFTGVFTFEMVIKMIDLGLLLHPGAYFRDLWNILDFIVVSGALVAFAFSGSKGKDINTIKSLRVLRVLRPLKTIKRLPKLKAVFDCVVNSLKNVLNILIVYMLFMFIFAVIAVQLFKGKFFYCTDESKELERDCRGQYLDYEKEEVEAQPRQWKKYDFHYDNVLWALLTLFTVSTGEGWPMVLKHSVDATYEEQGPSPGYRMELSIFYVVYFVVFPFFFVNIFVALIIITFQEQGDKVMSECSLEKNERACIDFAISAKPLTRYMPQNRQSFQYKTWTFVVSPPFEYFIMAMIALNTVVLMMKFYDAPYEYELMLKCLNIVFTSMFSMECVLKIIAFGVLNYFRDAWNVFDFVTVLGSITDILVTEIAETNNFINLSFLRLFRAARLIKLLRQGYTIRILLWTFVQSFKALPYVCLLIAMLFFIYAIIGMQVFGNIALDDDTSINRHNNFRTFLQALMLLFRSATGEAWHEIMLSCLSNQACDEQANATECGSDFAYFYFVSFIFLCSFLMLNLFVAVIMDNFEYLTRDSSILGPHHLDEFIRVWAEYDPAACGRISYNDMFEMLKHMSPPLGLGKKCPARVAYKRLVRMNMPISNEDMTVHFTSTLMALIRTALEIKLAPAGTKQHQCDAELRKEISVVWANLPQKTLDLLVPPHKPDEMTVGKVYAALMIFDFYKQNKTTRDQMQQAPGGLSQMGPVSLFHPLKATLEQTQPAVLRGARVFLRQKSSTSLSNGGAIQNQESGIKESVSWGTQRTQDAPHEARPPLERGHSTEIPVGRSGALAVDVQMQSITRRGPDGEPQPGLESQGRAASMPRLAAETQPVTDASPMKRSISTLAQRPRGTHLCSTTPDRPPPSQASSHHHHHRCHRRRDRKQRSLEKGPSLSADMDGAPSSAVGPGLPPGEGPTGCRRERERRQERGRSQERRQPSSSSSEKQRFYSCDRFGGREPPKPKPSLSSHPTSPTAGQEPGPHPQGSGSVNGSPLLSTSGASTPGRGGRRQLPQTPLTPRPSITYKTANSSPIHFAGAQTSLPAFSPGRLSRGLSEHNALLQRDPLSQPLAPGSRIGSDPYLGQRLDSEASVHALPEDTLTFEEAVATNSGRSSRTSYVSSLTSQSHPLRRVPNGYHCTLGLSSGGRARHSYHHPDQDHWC

The experiment has as its target Voltage-dependent N-type calcium channel subunit alpha-1B (Homo sapiens, UniProt Q00975). As to the kind of experiment: In vitro antagonism of N-type voltage sensitive calcium channel in IMR-32 assay using fluorescent [Ca2+] indicator […] in the presence of 5 uM nitrendipine. In kind it is functional.
On to `CC(C)C[C@@H](C(=O)N[C@@H](Cc1ccc(OCc2ccccc2)cc1)C(=O)N1CCN(C)CC1)N(C)CC1CCCCC1`, for which the IC50 turned out to be 1200 nM.

On to `CC(C)CCN(C)[C@@H](CC(C)C)C(=O)N[C@@H](Cc1ccc(OCc2ccccc2)cc1)C(=O)NC(C)(C)C`, for which the IC50 was 320 nM.

With `CC(C)CCN(C)[C@@H](CC(C)C)C(=O)N[C@@H](Cc1ccc(OCc2ccccc2)cc1)C(=O)N1CCCCC1`, the IC50 came out at 660 nM.

Consider `CC(C)C[C@@H](C(=O)N[C@@H](Cc1ccc(OCc2ccccc2)cc1)C(=O)NCCN1CCCCC1)N(C)C`, for which the IC50 was found to be 4100 nM.

For the compound `CC(C)C[C@@H](C(=O)N[C@@H](Cc1ccc(OCc2ccccc2)cc1)C(=O)NC(C)(C)C)N(C)Cc1ccc(C(C)(C)C)cc1`, the IC50 amounted to 40 nM.

Regarding `CC(C)CCN(C)[C@@H](CC(C)C)C(=O)N[C@@H](Cc1ccc(OCc2ccccc2)cc1)C(=O)NCCN1CCCCC1`, the IC50 worked out at 1100 nM.

In the case of `CC(C)C[C@@H](C(=O)N[C@@H](Cc1ccc(OCc2ccccc2)cc1)C(=O)N1CCCCC1)N(C)Cc1ccc(C(C)(C)C)cc1`, the IC50 was determined as 90 nM.

Regarding `CC(C)C[C@@H](C(=O)N[C@@H](Cc1ccc(OCc2ccccc2)cc1)C(=O)N1CCCCC1)N(C)CC1CCCCC1`, the IC50 turned out to be 320 nM.

Take `CC(C)C[C@@H](C(=O)N[C@@H](Cc1ccc(OCc2ccccc2)cc1)C(=O)N1CCN(Cc2ccccc2)CC1)N(C)Cc1ccc(C(C)(C)C)cc1`: the IC50 came out at 500 nM.

On to `CC(C)C[C@@H](C(=O)N[C@@H](Cc1ccc(OCc2ccccc2)cc1)C(=O)N1CCCCC1)N(C)C`, for which the IC50 is 1900 nM.

Regarding `CC(C)CCN(C)[C@@H](CC(C)C)C(=O)N[C@@H](Cc1ccc(OCc2ccccc2)cc1)C(=O)N1CCN(C)CC1`, the 50% inhibitory concentration (IC50) was found to be 1200 nM.

As to `CC(C)C[C@@H](C(=O)N[C@@H](Cc1ccc(OCc2ccccc2)cc1)C(=O)N1CCN(Cc2ccccc2)CC1)N(C)C`, the IC50 stood at 1200 nM.

With `CC(C)C[C@@H](C(=O)N[C@@H](Cc1ccc(OCc2ccccc2)cc1)C(=O)NCCN1CCCCC1)N(C)C1CCCCC1`, the IC50 came to 880 nM.

For the compound `CC(C)C[C@@H](C(=O)N[C@@H](Cc1ccc(OCc2ccccc2)cc1)C(=O)NC1CCN(Cc2ccccc2)CC1)N(C)CC1CCCCC1`, the half-inhibitory concentration (IC50) stood at 310 nM.

`CC(C)C[C@@H](C(=O)N[C@@H](Cc1ccc(OCc2ccccc2)cc1)C(=O)NCCN1CCCCC1)N(C)CC1CCCCC1`: the IC50 was 1000 nM.

As to `CC(C)C[C@@H](C(=O)N[C@@H](Cc1ccc(OCc2ccccc2)cc1)C(=O)NC(C)(C)C)N(C)C1CCCCC1`, the 50% inhibitory concentration (IC50) was determined as 200 nM.

Consider `CC(C)C[C@@H](C(=O)N[C@@H](Cc1ccc(OCc2ccccc2)cc1)C(=O)NC(C)(C)C)N(C)CC1CCCCC1`, for which the 50% inhibitory concentration (IC50) came to 500 nM.

For the compound `CC(C)C[C@@H](C(=O)N[C@@H](Cc1ccc(OCc2ccccc2)cc1)C(=O)NC1CCN(Cc2ccccc2)CC1)N(C)C1CCCCC1`, the IC50 worked out at 1300 nM.

For `CC(C)C[C@@H](C(=O)N[C@@H](Cc1ccc(OCc2ccccc2)cc1)C(=O)N1CCN(Cc2ccccc2)CC1)N(C)C1CCCCC1`, the IC50 came out at 760 nM.

On to `CC(C)C[C@@H](C(=O)N[C@@H](Cc1ccc(OCc2ccccc2)cc1)C(=O)NC(C)(C)C)N(C)C`, for which the IC50 is 2800 nM.

Take `CC(C)C[C@@H](C(=O)N[C@@H](Cc1ccc(OCc2ccccc2)cc1)C(=O)NC1CCN(Cc2ccccc2)CC1)N(C)Cc1ccc(C(C)(C)C)cc1`: the IC50 turned out to be 270 nM.

Take `CC(C)CCN(C)[C@@H](CC(C)C)C(=O)N[C@@H](Cc1ccc(OCc2ccccc2)cc1)C(=O)N1CCN(Cc2ccccc2)CC1`: the half-inhibitory concentration (IC50) turned out to be 590 nM.

Turning to `CC(C)C[C@@H](C(=O)N[C@@H](Cc1ccc(OCc2ccccc2)cc1)C(=O)NCCN1CCCCC1)N(C)Cc1ccc(C(C)(C)C)cc1`, the IC50 worked out at 310 nM.

Consider `CC(C)CCN(C)[C@@H](CC(C)C)C(=O)N[C@@H](Cc1ccc(OCc2ccccc2)cc1)C(=O)NC1CCN(Cc2ccccc2)CC1`, for which the IC50 came to 880 nM.

Turning to `CC(C)C[C@@H](C(=O)N[C@@H](Cc1ccc(OCc2ccccc2)cc1)C(=O)N1CCN(C)CC1)N(C)Cc1ccc(C(C)(C)C)cc1`, the half-maximal inhibitory concentration (IC50) is 440 nM.

In the case of `CC(C)C[C@@H](C(=O)N[C@@H](Cc1ccc(OCc2ccccc2)cc1)C(=O)N1CCN(Cc2ccccc2)CC1)N(C)CC1CCCCC1`, the half-maximal inhibitory concentration (IC50) was 420 nM.

In the case of `CC(C)C[C@@H](C(=O)N[C@@H](Cc1ccc(OCc2ccccc2)cc1)C(=O)N1CCCCC1)N(C)C1CCCCC1`, the IC50 was determined as 380 nM.

Consider `CC(C)C[C@@H](C(=O)N[C@@H](Cc1ccc(OCc2ccccc2)cc1)C(=O)N1CCN(C)CC1)N(C)C1CCCCC1`, for which the IC50 came out at 5600 nM.

For `CC(C)C[C@@H](C(=O)N[C@@H](Cc1ccc(OCc2ccccc2)cc1)C(=O)N1CCN(C)CC1)N(C)C`, the IC50 was found to be 13000 nM.

With `CC(C)C[C@@H](C(=O)N[C@@H](Cc1ccc(OCc2ccccc2)cc1)C(=O)NC1CCN(Cc2ccccc2)CC1)N(C)C`, the half-inhibitory concentration (IC50) stood at 2600 nM.
